± gives the expanded uncertainty stated by the source.
Experiments:
[1] = xn = mol fraction of the nth substance listed; conditions: 100 kPa, Liquid, x2 = 0; for viscosity: Concentric cylinders viscometry; for mass density: Vibrating tube method
[2] = refractive index (Na D-line) (dimensionless); xn = mol fraction of the nth substance listed; conditions: 100 kPa, Liquid, Standard Abbe refractometry, x2 = 0

`CCC(C)=O` [butanone] + OCCCO showed a viscosity ([1]; 288.15 K) of 0.4308 ± 0.0065 mPa·s, a mass density ([1]; 288.15 K) of 810.067 ± 0.2 kg/m3 and a viscosity ([1]; 293.15 K) of 0.4152 ± 0.0064 mPa·s. It also gave a mass density ([1]; 293.15 K) of 804.863 ± 0.2 kg/m3, a viscosity ([1]; 298.15 K) of 0.3992 ± 0.0062 mPa·s and a mass density ([1]; 298.15 K) of 799.632 ± 0.21 kg/m3. For the same compound, the viscosity ([1]; 303.15 K) was 0.3826 ± 0.0061 mPa·s, the mass density ([1]; 303.15 K) was 794.371 ± 0.21 kg/m3 and the viscosity ([1]; 308.15 K) was 0.3665 ± 0.0059 mPa·s. The mass density ([1]; 308.15 K) was 789.078 ± 0.21 kg/m3, the viscosity ([1]; 313.15 K) was 0.3499 ± 0.0058 mPa·s and the mass density ([1]; 313.15 K) was 783.752 ± 0.21 kg/m3. It also gave a viscosity ([1]; 318.15 K) of 0.3336 ± 0.0057 mPa·s, a mass density ([1]; 318.15 K) of 778.389 ± 0.21 kg/m3 and a viscosity ([1]; 323.15 K) of 0.3174 ± 0.0055 mPa·s. It also gave a mass density ([1]; 323.15 K) of 772.985 ± 0.21 kg/m3, a viscosity ([1]; 328.15 K) of 0.3001 ± 0.0054 mPa·s and a mass density ([1]; 328.15 K) of 767.539 ± 0.21 kg/m3. It also gave a viscosity ([1]; 333.15 K) of 0.2829 ± 0.0052 mPa·s, a mass density ([1]; 333.15 K) of 762.048 ± 0.21 kg/m3 and a refractive index ([2]; 288.15 K) of 1.38157 ± 0.00035. For the same compound, the refractive index ([2]; 293.15 K) was 1.37901 ± 0.00035, the refractive index ([2]; 298.15 K) was 1.37642 ± 0.00035 and the refractive index ([2]; 303.15 K) was 1.37386 ± 0.00035. The refractive index ([2]; 308.15 K) was 1.37125 ± 0.00035, the refractive index ([2]; 313.15 K) was 1.36857 ± 0.00035 and the refractive index ([2]; 318.15 K) was 1.36589 ± 0.00035. The refractive index ([2]; 323.15 K) was 1.36315 ± 0.00035, the refractive index ([2]; 328.15 K) was 1.36042 ± 0.00035 and the refractive index ([2]; 333.15 K) was 1.35746 ± 0.00035.
For `CCC(C)=O` [butanone] + c1ccncc1, the viscosity ([1]; 288.15 K) was 0.4308 ± 0.0065 mPa·s, the mass density ([1]; 288.15 K) was 810.067 ± 0.2 kg/m3 and the viscosity ([1]; 293.15 K) was 0.4152 ± 0.0064 mPa·s. The mass density ([1]; 293.15 K) was 804.863 ± 0.2 kg/m3, the viscosity ([1]; 298.15 K) was 0.3992 ± 0.0062 mPa·s and the mass density ([1]; 298.15 K) was 799.632 ± 0.21 kg/m3. The viscosity ([1]; 303.15 K) was 0.3826 ± 0.0061 mPa·s, the mass density ([1]; 303.15 K) was 794.371 ± 0.21 kg/m3 and the viscosity ([1]; 308.15 K) was 0.3665 ± 0.0059 mPa·s. It also gave a mass density ([1]; 308.15 K) of 789.078 ± 0.21 kg/m3, a viscosity ([1]; 313.15 K) of 0.3499 ± 0.0058 mPa·s and a mass density ([1]; 313.15 K) of 783.752 ± 0.21 kg/m3. It also gave a viscosity ([1]; 318.15 K) of 0.3336 ± 0.0057 mPa·s, a mass density ([1]; 318.15 K) of 778.389 ± 0.21 kg/m3 and a viscosity ([1]; 323.15 K) of 0.3174 ± 0.0055 mPa·s. For the same compound, the mass density ([1]; 323.15 K) was 772.985 ± 0.21 kg/m3, the viscosity ([1]; 328.15 K) was 0.3001 ± 0.0054 mPa·s and the mass density ([1]; 328.15 K) was 767.539 ± 0.21 kg/m3. For the same compound, the viscosity ([1]; 333.15 K) was 0.2829 ± 0.0052 mPa·s, the mass density ([1]; 333.15 K) was 762.048 ± 0.21 kg/m3 and the refractive index ([2]; 288.15 K) was 1.38157 ± 0.00035. It also gave a refractive index ([2]; 293.15 K) of 1.37901 ± 0.00035, a refractive index ([2]; 298.15 K) of 1.37642 ± 0.00035 and a refractive index ([2]; 303.15 K) of 1.37386 ± 0.00035. It also gave a refractive index ([2]; 308.15 K) of 1.37125 ± 0.00035, a refractive index ([2]; 313.15 K) of 1.36857 ± 0.00035 and a refractive index ([2]; 318.15 K) of 1.36589 ± 0.00035. It also gave a refractive index ([2]; 323.15 K) of 1.36315 ± 0.00035, a refractive index ([2]; 328.15 K) of 1.36042 ± 0.00035 and a refractive index ([2]; 333.15 K) of 1.35746 ± 0.00035.

Reference: the NIST ThermoML archive (doi:10.1016/j.fluid.2016.02.031)
